Experimental data as given in patent US7098024B2, “Depsipeptide compound” (Astellas Pharma Inc., priority 1999, dated 2006).

What was measured:
Format in all cases: cell-based
HeLa S3 cells = assay: Measurement of cytotoxic activity for human cancer cells (1), Cell Counting Kit; details: 72 h, cultured 3 days, read-out: IC50 value, cytotoxic activity (growth inhibition) for HeLa S3 cells
Experimental: Measurement of cytotoxic activity for human cancer cells (1)
HeLa S3 cells adjusted to a density of 6×10^4 cells/ml were dispensed in 200 μl portions, and various concentrations of the compound A and compound B respectively in 4 μl portions, into a 96 well test plate, and cultured at 37° C. for 3 days in a CO2 incubator. After the culturing, the degree of cell growth was measured using Cell Counting Kit (mfd. by DOJINDO), and the growth inhibition ratio at each concentration was obtained to calculate the IC50 value.

[1] = tested on: Human colon cancer WiDr cells; assay: Measurement of cytotoxic activity for human cancer cells (2), Sulforhodamine B, WiDr; details: 72 hours
Experimental: (§1) Measurement of cytotoxic activity for human cancer cells (2)
(§2) Human colon cancer WiDr cells adjusted to a density of 6×10^4 cells/ml, human non-small cell lung carcinoma A549 cells adjusted to a density of 4×10^4 cells/ml or human prostate cancer DU-145 cells adjusted to a density of 6×10^4 cells/ml were dispensed into a 96 well test plate and cultured at 37° C. in a CO2 incubator. After 24 hours, varied concentration of the compound A, compound B or compound C was dispensed in 100 μl portions, and the cells were cultured at 37° C. for additional 72 hours in a CO2 incubator. After the culturing, the number of cells was determined using Sulforhodamine B, and the IC50 value of each compound for cell growth was calculated.

[2] = tested on: human non-small cell lung carcinoma A549 cells; assay: Measurement of cytotoxic activity for human cancer cells (2), Sulforhodamine B, A549; details: 72 hours; for IC50: Homo sapiens, read-out: IC50 value for cell growth, A549 cells
Experimental: as §1, §2

[3] = tested on: human prostate cancer DU-145 cells; assay: Measurement of cytotoxic activity for human cancer cells (2), Sulforhodamine B, DU-145; details: 72 hours
Experimental: as §1, §2

[4] = tested on: PAI-1 promoter gene expression in mink lung epithelial cells (MvlLu); assay: Measurement of TGF-β like activity, PAI-1 promoter luciferase reporter
Source text: Measurement of TGF-β like activity
In order to detect the TGF-β like activity, a screening system was constructed making use of the expression of a reporter gene. A fluorescent luciferase gene was transfected into downstream of the PAI-1 promoter gene of mink lung epithelial cells (MvlLu). in which expression of […] (PAI-1) is induced by TGF-β due to excess expression of TGF-β receptor (Journal of Biological Chemistxy, vol. 262, pp. 17467–17414, 1987), (Analytical Biochemistry, vol. 216, pp. 276–284, 1994).
Using the above cells, the luminous intensity obtained by adding each compound was used as the index of TGF-β like activity.

CC1NC(=O)CC2/C=C/CCSSCC(NC1=O)C(=O)NC(C(C)C)C(O)CC(=O)O2 (stereo not drawn) [Compound A]
IC50 (HeLa S3 cells): 1600 nM | cell growth inhibition activity for WiDr cells [1]: excellent cell growth inhibition activity | cell growth inhibition activity for A549 cells [2]: excellent cell growth inhibition activity | IC50 [2]: ≤ 5 nM | cell growth inhibition activity for DU-145 cells [3]: excellent cell growth inhibition activity

CCC(C)C1NC(=O)C2CSSCC/C=C/C(CC(=O)NC(C)C(=O)N2)OC(=O)CC1O (stereo not drawn) [Compound B]
IC50 (HeLa S3 cells): 1200 nM | cell growth inhibition activity for WiDr cells [1]: excellent cell growth inhibition activity | cell growth inhibition activity for A549 cells [2]: excellent cell growth inhibition activity | IC50 [2]: ≤ 5 nM | cell growth inhibition activity for DU-145 cells [3]: excellent cell growth inhibition activity

CC(C)CC1NC(=O)C2CSSCC/C=C/C(CC(=O)NC(C)C(=O)N2)OC(=O)CC1O (stereo not drawn) [Compound C]
cell growth inhibition activity for WiDr cells [1]: excellent cell growth inhibition activity | cell growth inhibition activity for A549 cells [2]: excellent cell growth inhibition activity | IC50 [2]: ≤ 5 nM | cell growth inhibition activity for DU-145 cells [3]: excellent cell growth inhibition activity

TGF-β
luminous intensity induced by the expression of PAI-1 promoter gene [4]: increased the luminous intensity
